This passage reports IC50 results from patent US20210038607A1, “OXADIAZOLYLTHIOPHENE DERIVATIVES USEFUL AS HISTONE DEACETYLASE INHIBITORS” (Karus Therapeutics Limited, priority 2018, published 2021).

One assay has as its target T1, Human HDAC1 (Homo sapiens, UniProt Q13547).
T1 construct: full length with C-terminal His-tag and C-terminal FLAG-tag; His (C); FLAG (C); host or cells: baculovirus expression system
The experiment in a line: HDAC1 biochemical assay, AMC-labeled peptide substrate. To be noted: read-out: HDAC Isoform IC50 (nM) 1. The essentials:
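Baculovirus-expressed full-length human HDAC1 with His and FLAG tags, 0.3 ng/ul, incubated 1 h at 30° C with compound and 50 μM RHKK(Ac)AMC in Tris pH 8.0 buffer with BSA and 1% DMSO. Developer then releases AMC from deacetylated substrate; fluorescence read at 360/460 nm.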

A further assay concerns the target T2, Human HDAC2 (Homo sapiens, UniProt Q92769).
T2 construct: full length with C-terminal GST-tag; GST (C); host or cells: baculovirus expression system
As to the kind of experiment: HDAC2 biochemical assay, AMC-labeled peptide substrate. As to conditions: read-out: HDAC Isoform IC50 (nM) 2. The gist of the method: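 Full-length human HDAC2 with C-terminal GST tag, baculovirus-expressed, at 0.07 ng/ul with 50 μM RHKK(Ac)AMC substrate in Tris-HCl pH8.0 buffer with BSA, 1% DMSO final. Incubated 1 hour at 30° C with compounds, then developer added; fluorescence read at 360/460 Ex/Em.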

In a further assay the target is T3, Human HDAC4 (Homo sapiens, UniProt P56524).
T3 construct: amino acids 627-1085 with N-terminal GST tag; GST (N); host or cells: baculovirus expression system
T3 sequence (P56524 627-1084 limits assumed): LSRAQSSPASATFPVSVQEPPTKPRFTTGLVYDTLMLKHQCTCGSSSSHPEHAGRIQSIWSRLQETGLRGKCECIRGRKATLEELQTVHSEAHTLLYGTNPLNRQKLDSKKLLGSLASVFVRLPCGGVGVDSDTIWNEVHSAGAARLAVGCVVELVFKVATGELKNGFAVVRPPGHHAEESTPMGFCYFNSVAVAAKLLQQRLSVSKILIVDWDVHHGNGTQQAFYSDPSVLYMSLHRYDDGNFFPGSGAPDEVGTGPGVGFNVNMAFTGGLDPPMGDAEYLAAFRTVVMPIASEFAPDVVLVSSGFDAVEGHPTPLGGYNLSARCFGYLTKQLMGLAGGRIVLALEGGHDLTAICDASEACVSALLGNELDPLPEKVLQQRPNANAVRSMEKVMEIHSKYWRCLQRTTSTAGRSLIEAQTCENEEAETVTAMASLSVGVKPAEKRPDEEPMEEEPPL
The experiment in a line: HDAC4 biochemical assay, class IIa-specific substrate. As to conditions: read-out: HDAC Isoform IC50 (nM) 4. The gist of the method:
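GST-tagged human HDAC4 (aa 627-1085, baculovirus) at 0.004 ng/ul was incubated 30 min at room temperature with 50 μM class IIa-specific substrate BOC-Lys(trifluoroacetyl)-AMC in Tris-HCl pH 8.0 buffer with BSA, 1% DMSO. Developer then released AMC, read at 360/460 nm.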

For a further assay, the target named is T4, Human HDAC5 (Homo sapiens, UniProt Q9UQL6).
T4 construct: full length with C-terminal His tag, MW=51.1 kDa; His (C); host or cells: baculovirus expression system
T4 sequence (Q9UQL6 656-1122 limits assumed): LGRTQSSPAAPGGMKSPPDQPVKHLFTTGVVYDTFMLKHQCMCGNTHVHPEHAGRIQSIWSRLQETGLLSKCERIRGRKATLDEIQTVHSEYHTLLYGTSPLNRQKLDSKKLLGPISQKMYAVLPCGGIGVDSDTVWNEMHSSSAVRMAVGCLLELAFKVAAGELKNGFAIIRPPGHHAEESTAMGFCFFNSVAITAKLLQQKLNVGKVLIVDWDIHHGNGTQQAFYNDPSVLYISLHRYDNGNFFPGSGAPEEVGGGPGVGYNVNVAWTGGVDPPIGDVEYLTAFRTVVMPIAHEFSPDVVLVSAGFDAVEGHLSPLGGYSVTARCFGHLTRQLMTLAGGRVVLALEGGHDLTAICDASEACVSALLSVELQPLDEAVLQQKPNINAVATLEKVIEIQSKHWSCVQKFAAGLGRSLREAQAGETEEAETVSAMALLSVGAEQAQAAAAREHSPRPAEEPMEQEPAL
As to the kind of experiment: HDAC5 biochemical assay, class IIa-specific substrate. To be noted: read-out: HDAC Isoform IC50 (nM) 5. The essentials:
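Full-length C-terminal His-tagged HDAC5 from baculovirus (0.05 ng/ul) incubated 30 min at room temperature with 50 μM Boc-Lys(trifluoroacetyl)-AMC and compound, Tris pH 8.0 buffer with BSA, 1% DMSO. Developer then releases AMC; fluorescence 360/460 nm.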

In the next assay the target is T5, Human HDAC10 (Homo sapiens, UniProt Q969S8).
T5 construct: Human HDAC10 (a.a. 1-481); GST (N); His (C); host or cells: baculovirus expression system
T5 sequence (Q969S8 1-481): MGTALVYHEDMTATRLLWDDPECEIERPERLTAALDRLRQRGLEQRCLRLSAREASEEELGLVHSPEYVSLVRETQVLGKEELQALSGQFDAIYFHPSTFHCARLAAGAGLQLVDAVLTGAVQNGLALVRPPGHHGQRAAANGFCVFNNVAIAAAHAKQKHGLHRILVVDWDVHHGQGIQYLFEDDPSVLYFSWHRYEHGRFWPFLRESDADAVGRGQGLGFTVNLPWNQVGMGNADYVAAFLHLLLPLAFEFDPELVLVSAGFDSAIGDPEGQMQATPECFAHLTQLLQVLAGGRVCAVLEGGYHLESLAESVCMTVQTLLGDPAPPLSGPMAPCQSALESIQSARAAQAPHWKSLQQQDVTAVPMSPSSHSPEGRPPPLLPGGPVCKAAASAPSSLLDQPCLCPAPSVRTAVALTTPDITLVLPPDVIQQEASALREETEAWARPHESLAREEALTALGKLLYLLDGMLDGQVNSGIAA
The experiment in a line: HDAC10 biochemical assay, AMC-labeled peptide substrate. As to conditions: read-out: HDAC Isoform IC50 (nM) 10. The essentials: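 Baculovirus-expressed GST/His-tagged human HDAC10 (aa 1-481), 12 ng/ul, incubated with 50 μM RHKK(Ac)AMC in Tris pH 8.0 buffer with BSA and 1% DMSO, 2 h at 30 °C. Developer then releases AMC, read at 360/460 nm.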

A further assay addresses T6, Human HDAC11 (Homo sapiens, UniProt Q96DB2).
T6 construct: Human HDAC11 (full length); His (N); host or cells: baculovirus expression system
T6 sequence (Q96DB2 1-347): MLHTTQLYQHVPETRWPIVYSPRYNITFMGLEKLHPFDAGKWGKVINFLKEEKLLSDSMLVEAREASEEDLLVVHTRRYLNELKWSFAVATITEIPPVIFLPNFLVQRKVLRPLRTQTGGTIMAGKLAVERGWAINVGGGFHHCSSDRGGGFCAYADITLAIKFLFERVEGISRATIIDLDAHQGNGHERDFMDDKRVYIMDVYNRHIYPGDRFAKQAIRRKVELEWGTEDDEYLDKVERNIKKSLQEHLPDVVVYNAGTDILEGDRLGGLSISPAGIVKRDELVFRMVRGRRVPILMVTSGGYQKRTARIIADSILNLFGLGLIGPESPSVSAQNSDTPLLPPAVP
As to the kind of experiment: HDAC11 biochemical assay, class IIa-specific substrate. To be noted: read-out: HDAC Isoform IC50 (nM) 11. The gist of the method:
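Full-length N-His human HDAC11 from baculovirus, 5 ng/μl, incubated with 50 μM Boc-Lys(trifluoroacetyl)-AMC for 30 min at 30 °C. Buffer: 50 mM Tris-HCl pH 8.0, 137 mM NaCl, 2.7 mM KCl, 1 mM MgCl2, 1 mg/mL BSA, 1% DMSO. Developer releases AMC; fluorescence read at 360/460 nm.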

T2 sequence (Q92769 whole entry): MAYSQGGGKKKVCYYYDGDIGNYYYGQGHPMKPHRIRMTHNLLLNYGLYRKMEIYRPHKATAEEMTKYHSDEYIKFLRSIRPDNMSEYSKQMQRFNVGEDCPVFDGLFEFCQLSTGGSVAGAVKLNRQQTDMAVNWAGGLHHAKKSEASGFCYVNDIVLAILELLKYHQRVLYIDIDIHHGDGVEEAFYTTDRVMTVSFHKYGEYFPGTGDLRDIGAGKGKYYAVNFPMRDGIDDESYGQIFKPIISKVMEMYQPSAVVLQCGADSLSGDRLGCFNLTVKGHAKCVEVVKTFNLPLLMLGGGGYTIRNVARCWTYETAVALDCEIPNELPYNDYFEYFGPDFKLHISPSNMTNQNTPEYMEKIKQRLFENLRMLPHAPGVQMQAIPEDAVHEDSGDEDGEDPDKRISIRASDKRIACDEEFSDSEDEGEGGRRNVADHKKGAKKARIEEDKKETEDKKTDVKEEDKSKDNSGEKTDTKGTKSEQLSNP
T1 sequence (Q13547 whole entry): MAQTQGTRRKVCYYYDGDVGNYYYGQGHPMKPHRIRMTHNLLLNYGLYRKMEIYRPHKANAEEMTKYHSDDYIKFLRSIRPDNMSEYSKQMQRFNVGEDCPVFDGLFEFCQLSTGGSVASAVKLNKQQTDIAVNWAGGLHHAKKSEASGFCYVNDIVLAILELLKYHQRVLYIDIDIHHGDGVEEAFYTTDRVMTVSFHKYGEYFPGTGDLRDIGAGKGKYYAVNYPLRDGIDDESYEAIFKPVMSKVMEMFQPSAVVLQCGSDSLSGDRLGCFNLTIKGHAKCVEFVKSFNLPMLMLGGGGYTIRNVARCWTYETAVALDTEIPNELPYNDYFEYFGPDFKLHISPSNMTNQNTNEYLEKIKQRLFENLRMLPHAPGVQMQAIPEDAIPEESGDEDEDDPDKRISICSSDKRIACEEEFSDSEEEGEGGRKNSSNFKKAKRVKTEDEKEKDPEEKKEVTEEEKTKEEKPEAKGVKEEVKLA

For `FC(F)(F)c1cnc(N(Cc2ccc(-c3noc(C(F)(F)F)n3)s2)c2cnccn2)cn1` [Example BK, N-(Pyrazin-2-yl)-5-(trifluoromethyl)-N-({5-[5-(trifluoromethyl)-1,2,4-oxadiazol-3-yl]thiophen-2-yl}methyl)pyrazin-2-amine], the IC50 at Human HDAC1 is more than 10000 nM; at Human HDAC2, more than 10000 nM; on Human HDAC4, not above 10000 nM; on Human HDAC5, not above 10000 nM; on Human HDAC10, more than 10000 nM; at Human HDAC11 it was more than 10000 nM.
Consider `Cc1cnnc(N(Cc2ccc(-c3noc(C(F)(F)F)n3)s2)c2cnccn2)c1` [Example GN, 5-Methyl-N-(pyrazin-2-yl)-N-({5-[5-(trifluoromethyl)-1,2,4-oxadiazol-3-yl]thiophen-2-yl}methyl)pyridazin-3-amine], for which the IC50 on Human HDAC1 is more than 10000 nM; on Human HDAC2, more than 10000 nM; at Human HDAC4, not above 1000 nM; on Human HDAC5, not above 1000 nM; on Human HDAC10, more than 10000 nM; at Human HDAC11 it was more than 10000 nM.
Take `O=C(c1cnnc(N(Cc2ccc(-c3noc(C(F)(F)F)n3)s2)c2cnccn2)c1)N1CCC1` [Example FS, 5-(Azetidine-1-carbonyl)-N-(pyrazin-2-yl)-N-({5-[5-(trifluoromethyl)-1,2,4-oxadiazol-3-yl]thiophen-2-yl}methyl)pyridazin-3-amine]: the IC50 on Human HDAC1 was more than 10000 nM; on Human HDAC2, more than 10000 nM; at Human HDAC4, not above 10000 nM; on Human HDAC5, not above 1000 nM; on Human HDAC10, more than 10000 nM; on Human HDAC11, more than 10000 nM.
As for `O=C(O)c1ccc(N(Cc2sc(-c3noc(C(F)(F)F)n3)cc2F)c2cnccn2)nn1` [Example EZ, 6-[({3-Fluoro-5-[5-(trifluoromethyl)-1,2,4-oxadiazol-3-yl]thiophen-2-yl}methyl)(pyrazin-2-yl)amino]pyridazine-3-carboxylic acid], the IC50 was more than 10000 nM on Human HDAC1; more than 10000 nM at Human HDAC2; not above 10000 nM at Human HDAC4; not above 10000 nM at Human HDAC5; more than 10000 nM on Human HDAC10; more than 10000 nM on Human HDAC11.
As to `FC(F)(F)c1cnnc(N(Cc2ccc(-c3noc(C(F)(F)F)n3)s2)c2cnccn2)c1` [Example EF, N-(Pyrazin-2-yl)-5-(trifluoromethyl)-N-({5-[5-(trifluoromethyl)-1,2,4-oxadiazol-3-yl]thiophen-2-yl}methyl)pyridazin-3-amine], the IC50 was more than 10000 nM on Human HDAC1; more than 10000 nM at Human HDAC2; not above 10000 nM on Human HDAC4; not above 10000 nM at Human HDAC5; more than 10000 nM on Human HDAC10; more than 10000 nM at Human HDAC11.
`O=C(c1cnnc(N(Cc2ccc(-c3noc(C(F)(F)F)n3)s2)c2cnccn2)c1)N1CCOCC1` [Example EB, 5-(Morpholine-4-carbonyl)-N-(pyrazin-2-yl)-N-({5-[5-(trifluoromethyl)-1,2,4-oxadiazol-3-yl]thiophen-2-yl}methyl)pyridazin-3-amine]: the IC50 is more than 10000 nM at Human HDAC1; more than 10000 nM on Human HDAC2; not above 10000 nM at Human HDAC4; not above 1000 nM on Human HDAC5; more than 10000 nM at Human HDAC10; more than 10000 nM on Human HDAC11.
For `[O-][S+]1CCN(Cc2ccc(N(Cc3ccc(-c4noc(C(F)(F)F)n4)s3)c3cnccn3)nn2)CC1` [Example FO, 4-({6-[(Pyrazin-2-yl)({5-[5-(trifluoromethyl)-1,2,4-oxadiazol-3-yl]thiophen-2-yl}methyl)amino]pyridazin-3-yl}methyl)-1lambda4-thiomorpholin-1-one], the IC50 at Human HDAC1 was more than 10000 nM; at Human HDAC2 it was more than 10000 nM; at Human HDAC4 it was not above 1000 nM; at Human HDAC5, not above 1000 nM; on Human HDAC10, more than 10000 nM; at Human HDAC11 it was more than 10000 nM.
Regarding `FC(F)(F)c1nc(-c2ccc(CN(c3cnccn3)c3cc(CN4CCCC4)ccn3)s2)no1` [Example GG, N-{4-[(Pyrrolidin-1-yl)methyl]pyridin-2-yl}-N-({5-[5-(trifluoromethyl)-1,2,4-oxadiazol-3-yl]thiophen-2-yl}methyl)pyrazin-2-amine], the IC50 is more than 10000 nM on Human HDAC1; more than 10000 nM on Human HDAC2; not above 1000 nM on Human HDAC4; not above 1000 nM at Human HDAC5; more than 10000 nM at Human HDAC10; more than 10000 nM at Human HDAC11.
For `Cc1cnc(N(Cc2ccc(-c3noc(C(F)(F)F)n3)s2)c2cnccn2)cn1` [Example BH, 5-Methyl-N-(pyrazin-2-yl)-N-({5-[5-(trifluoromethyl)-1,2,4-oxadiazol-3-yl]thiophen-2-yl}methyl)pyrazin-2-amine], the IC50 on Human HDAC1 was not above 10000 nM; on Human HDAC2, more than 10000 nM; on Human HDAC4 it was not above 1000 nM; at Human HDAC5, not above 1000 nM; on Human HDAC10, more than 10000 nM; on Human HDAC11 it was more than 10000 nM.
`CC(F)(F)c1cnnc(N(Cc2ccc(-c3noc(C(F)(F)F)n3)s2)c2cnccn2)c1` [Example GU, 5-(1,1-Difluoroethyl)-N-(pyrazin-2-yl)-N-({5-[5-(trifluoromethyl)-1,2,4-oxadiazol-3-yl]thiophen-2-yl}methyl)pyridazin-3-amine]: the IC50 is more than 10000 nM at Human HDAC1; more than 10000 nM at Human HDAC2; not above 10000 nM on Human HDAC4; not above 10000 nM at Human HDAC5; more than 10000 nM on Human HDAC10; more than 10000 nM at Human HDAC11.
On to `CN(C)C1CN(C(=O)c2cnnc(N(Cc3ccc(-c4noc(C(F)(F)F)n4)s3)c3cnccn3)c2)C1` [Example FX, 5-[3-(Dimethylamino)azetidine-1-carbonyl]-N-(pyrazin-2-yl)-N-({5-[5-(trifluoromethyl)-1,2,4-oxadiazol-3-yl]thiophen-2-yl}methyl)pyridazin-3-amine], for which the 50% inhibitory concentration (IC50) was more than 10000 nM on Human HDAC1; more than 10000 nM on Human HDAC2; not above 10000 nM at Human HDAC4; not above 10000 nM at Human HDAC5; more than 10000 nM at Human HDAC10; more than 10000 nM at Human HDAC11.
Regarding `CN1CCN(C(=O)c2cnnc(N(Cc3ccc(-c4noc(C(F)(F)F)n4)s3)c3cnccn3)c2)CC1` [Example EC, 5-(4-Methylpiperazine-1-carbonyl)-N-(pyrazin-2-yl)-N-({5-[5-(trifluoromethyl)-1,2,4-oxadiazol-3-yl]thiophen-2-yl}methyl)pyridazin-3-amine], the IC50 on Human HDAC1 was more than 10000 nM; at Human HDAC2 it was more than 10000 nM; on Human HDAC4 it was not above 10000 nM; on Human HDAC5, not above 10000 nM; at Human HDAC10, more than 10000 nM; at Human HDAC11, more than 10000 nM.
